Data reported in paper PMC8522722, “Safety and Pharmacokinetics in Human Volunteers of Taniborbactam (VNRX-5133), a Novel Intravenous β-Lactamase Inhibitor” (Antimicrobial Agents and Chemotherapy, 2021).

Legend:
[1] = Single-ascending-dose (SAD) pharmacokinetics in plasma and urine, healthy adult volunteers; assay type: in vivo, human; details: for Tmax: median (range); for Fe: excreted unchanged in urine over 48 h; for Ae: urine over 48 h
Protocol: Eligible subjects were randomized to receive either taniborbactam or placebo in a 3:1 ratio within dose cohorts in both the SAD and MAD parts of the study. Each dose cohort in the SAD part of the study enrolled 8 subjects, and each dose cohort in the MAD part of the study enrolled 12 subjects. In the SAD part, subjects received 62.5, 125, 250, 500, 1,000, or 1,500 mg taniborbactam as a 2-h intravenous (i.v.) infusion. In the MAD part, subjects received 2-h intravenous i.v. infusions of 250, 500, or 750 mg taniborbactam q8h over 10 days, ending after a final morning dose on day 10 (total of 28 doses).
Blood samples for assay of taniborbactam in plasma were collected predose and at 1, 2, 2.25, 2.5, 2.75, 3, 4, 6, 8, 12, 26, and 50 h after the start of drug infusion in the SAD part. For the MAD part, blood samples to determine taniborbactam plasma concentrations were collected predose and at 1, 2, 2.25, 2.5, 2.75, 3, 4, 6, and 8 h following the first dose (day 1) and predose and at 1, 2, 2.25, 2.5, 2.75, 3, 4, 6, 10, 14, and 26 h following the last dose (day 10). Urine was collected predose and at intervals of 0 to 4, 4 to 8, 8 to 24, and 24 to 48 h after the start of the infusion in the SAD part for the higher-dose groups (500 to 1,500 mg taniborbactam). For the MAD part, urine was collected through the dosing interval following the last dose using collection intervals of 0 to 4 and 4 to 8 h after the start of the infusion. At the end of each urine collection interval, the volume of each urine collection was recorded and a sample was taken.
Plasma and urine samples were assayed for taniborbactam and screened for possible metabolites. Human dipotassium ethylenediaminetetraacetic acid (K2EDTA) plasma samples were processed using protein precipitation and assayed using ultra-high-performance liquid chromatography with tandem mass spectrometric detection (LC-MS/MS). Both low- and high-range methods were developed and validated for plasma samples, with calibration ranges of 5 to 5,000 ng/ml and 100 to 100,000 ng/ml, respectively. Acidified urine samples were processed using solid-phase extraction and assayed using a validated LC-MS/MS method with a calibration range of 5.0 to 5,000 ng/ml. For both matrices, separation was accomplished using a Waters Acquity HSS T3 column (Milford, MA) at 50°C, and gradient elution using 10 mM ammonium formate with 1% formic acid as mobile phase A and 50:50:1 acetonitrile:methanol:formic acid (vol/vol/vol) as mobile phase B. A triple quadrupole mass spectrometer (API Triple Quad 5500; AB Sciex, Framingham, MA) equipped with a turbo-ion spray set was used for detection in positive ion mode, and quantification was based on multiple reaction monitoring. The internal standard used in the assays was D4-taniborbactam.
Individual subject plasma and urine taniborbactam pharmacokinetic parameters were evaluated using noncompartmental analysis methods (Phoenix WinNonlin, Certara, Princeton, NJ). Single-dose pharmacokinetic parameters were determined in the SAD part, and both single-dose (day 1) and multiple-dose (day 10) pharmacokinetic parameters were determined in the MAD part. Estimated pharmacokinetic parameters included Cmax, time to Cmax (Tmax), AUCtau, AUC0–inf, t1/2, CL, VZ, Ae, Fe, and CLR. The actual sample times were used to calculate the pharmacokinetic parameters. Calculation of λZ was based on best fit of concentrations in the observed terminal elimination phase of a profile, and statistical inclusion of any parameter based on λZ required the goodness of fit statistic (R^2) to be greater than 0.8. Pharmacokinetic data were summarized using descriptive statistics by treatment. Dose proportionality based on Cmax and AUC was determined using linear regression to calculate the slope and 90% CI and observing whether a slope of 1 was included in the confidence interval. The dose proportionality analysis included subject body weight as a covariate in the analysis.

[2] = tested on: Enterobacterales isolates; design: method as in ref 13, 14 = [13]; 13 Vidales A , Hackel M , Wise M , Sahm D . 2020 . Antimicrobial activity of cefepime in combination with taniborbactam (formerly VNRX-5133) against clinical isolates of Enterobacterales collected fro || [14]; 14 Kalamatas J , Hackel M , Wise M , Sahm D . 2020 . Antimicrobial activity of cefepime in combination with taniborbactam (formerly VNRX-5133) against a 2018–2019 surveillance collection of Pseudomona; details: cited from earlier work
[3] = single dose 62.5 mg, 2-h i.v. infusion, mean (%CV)
[4] = single dose 125 mg, 2-h i.v. infusion, mean (%CV)
[5] = single dose 250 mg, 2-h i.v. infusion, mean (%CV)
[6] = single dose 500 mg, 2-h i.v. infusion, mean (%CV)
[7] = single dose 1,000 mg, 2-h i.v. infusion, mean (%CV)
[8] = single dose 1,000 mg, mean (%CV)
[9] = single dose 1,500 mg, 2-h i.v. infusion, mean (%CV)
[10] = single dose 1,500 mg, mean (%CV)

Question: For `NCCN[C@H]1CC[C@H](CC(=O)N[C@H]2Cc3cccc(C(=O)O)c3OB2O)CC1` [Taniborbactam], which t1/2 ([1]; higher single-dose groups (500 to 1,500 mg)) is on record?
Answer: The t1/2 was about 5.7 h.

Question: And the AUCinf [1, 3]?
Answer: The AUCinf was 11,284 (13.3) h · ng/ml.

Question: What about the CL [1, 3] of the same compound?
Answer: Its CL is 5.6 (14.1) liters/h.

Question: What about the Cmax [1, 3] of the same compound?
Answer: Its Cmax is 3,398 (17.0) ng/ml.

Question: What about the Vz [1, 3] of the same compound?
Answer: The Vz was 28.4 (18.7) liters.

Question: And the Tmax ([1]; single dose 62.5 mg, 2-h i.v. infusion)?
Answer: The Tmax was 2.0 (2.0, 2.0) h.

Question: And the t1/2 ([1]; single dose 62.5 mg, 2-h i.v. infusion, terminal elimination, mean (%CV))?
Answer: The t1/2 was 3.5 (9.3) h.

Question: And the AUCinf [1, 4]?
Answer: The AUCinf was 20,326 (13.7) h · ng/ml.

Question: What about the CL [1, 4] of the same compound?
Answer: Its CL is 6.2 (12.6) liters/h.

Question: And the Cmax [1, 4]?
Answer: The Cmax was 5,023 (13.8) ng/ml.

Question: And the Vz [1, 4]?
Answer: The Vz was 30.2 (14.2) liters.

Question: And the Tmax ([1]; single dose 125 mg, 2-h i.v. infusion)?
Answer: The Tmax was 2.0 (2.0, 2.0) h.

Question: And the t1/2 ([1]; single dose 125 mg, 2-h i.v. infusion, terminal elimination, mean (%CV))?
Answer: The t1/2 was 3.4 (5.8) h.

Question: And the AUCinf [1, 5]?
Answer: Its AUCinf is 41,106 (19.0) h · ng/ml.

Question: And the CL [1, 5]?
Answer: The CL was 6.3 (17.5) liters/h.

Question: What about the Cmax [1, 5] of the same compound?
Answer: Its Cmax is 11,533 (13.8) ng/ml.

Question: What about the Vz [1, 5] of the same compound?
Answer: Its Vz is 34.6 (17.1) liters.

Question: What about the Tmax ([1]; single dose 250 mg, 2-h i.v. infusion) of the same compound?
Answer: The Tmax was 2.0 (2.0, 2.0) h.

Question: What about the t1/2 ([1]; single dose 250 mg, 2-h i.v. infusion, terminal elimination, mean (%CV)) of the same compound?
Answer: The t1/2 was 4.0 (31.1) h.

Question: What about the AUCinf [1, 6] of the same compound?
Answer: The AUCinf was 82,499 (9.2) h · ng/ml.

Question: And the CL [1, 6]?
Answer: The CL was 6.1 (9.0) liters/h.

Question: And the Cmax [1, 6]?
Answer: The Cmax was 22,650 (11.4) ng/ml.

Question: And the Vz [1, 6]?
Answer: The Vz was 50.2 (12.1) liters.

Question: And the Tmax ([1]; single dose 500 mg, 2-h i.v. infusion)?
Answer: Its Tmax is 2.0 (2.0, 2.0) h.

Question: What about the t1/2 ([1]; single dose 500 mg, 2-h i.v. infusion, terminal elimination, mean (%CV)) of the same compound?
Answer: Its t1/2 is 5.7 (4.3) h.

Question: And the Fe ([1]; single dose 500 mg, mean (%CV))?
Answer: The Fe was 64.1 (9.6) %.

Question: And the Fe ([1]; single dose 500 mg, mean (%CV), listed as taniborbactam)?
Answer: The Fe was 64.1%.

Question: What about the CLR ([1]; single dose 500 mg, mean (%CV)) of the same compound?
Answer: The CLR was 3.9 (15.5) liters/h.

Question: What about the Ae ([1]; single dose 500 mg, mean (%CV)) of the same compound?
Answer: Its Ae is 320.6 (9.6) mg.

Question: And the AUCinf [1, 7]?
Answer: The AUCinf was 156,542 (15.7) h · ng/ml.

Question: And the CL [1, 7]?
Answer: Its CL is 6.5 (15.7) liters/h.

Question: What about the Cmax [1, 7] of the same compound?
Answer: Its Cmax is 43,317 (14.8) ng/ml.

Question: And the Vz [1, 7]?
Answer: Its Vz is 54.0 (17.9) liters.

Question: What about the Tmax ([1]; single dose 1,000 mg, 2-h i.v. infusion) of the same compound?
Answer: Its Tmax is 2.0 (2.0, 2.1) h.

Question: And the t1/2 ([1]; single dose 1,000 mg, 2-h i.v. infusion, terminal elimination, mean (%CV))?
Answer: Its t1/2 is 5.7 (3.3) h.

Question: And the Fe [1, 8]?
Answer: The Fe was 76.7 (9.4) %.

Question: And the Fe ([1]; single dose 1,000 mg, mean (%CV), listed as taniborbactam)?
Answer: Its Fe is 76.7%.

Question: And the CLR [1, 8]?
Answer: Its CLR is 5.0 (16.7) liters/h.

Question: And the Ae [1, 8]?
Answer: The Ae was 766.9 (9.4) mg.

Question: What about the AUCinf [1, 9] of the same compound?
Answer: The AUCinf was 263,422 (17.8) h · ng/ml.

Question: And the CL [1, 9]?
Answer: Its CL is 5.9 (19.2) liters/h.

Question: What about the Cmax [1, 9] of the same compound?
Answer: The Cmax was 71,817 (16.3) ng/ml.

Question: What about the Vz [1, 9] of the same compound?
Answer: Its Vz is 49.4 (21.6) liters.

Question: What about the Tmax ([1]; single dose 1,500 mg, 2-h i.v. infusion) of the same compound?
Answer: Its Tmax is 2.0 (2.0, 2.0) h.

Question: What about the t1/2 ([1]; single dose 1,500 mg, 2-h i.v. infusion, terminal elimination, mean (%CV)) of the same compound?
Answer: The t1/2 was 5.8 (6.2) h.

Question: What about the Fe [1, 10] of the same compound?
Answer: Its Fe is 66.6 (12.9) %.

Question: What about the Fe ([1]; single dose 1,500 mg, mean (%CV), listed as taniborbactam) of the same compound?
Answer: The Fe was 66.6%.

Question: And the CLR [1, 10]?
Answer: Its CLR is 3.9 (16.8) liters/h.

Question: And the Ae [1, 10]?
Answer: Its Ae is 998.7 (12.9) mg.

Question: What about the “half-life of the earlier phase that characterizes the majority of exposure” value ([1]; single doses, also seen within dose intervals on multiple dosing) of the same compound?
Answer: Its value is “about 2 h”.

Question: And the “potentiation of cefepime activity as measured by the MIC90” value [2]?
Answer: Its value is “at least 128 fold”.
